Article PMC8494060 (Science translational medicine, 2020)

Target: T1, OGA (Rattus norvegicus, UniProt Q8VIJ5)
T1 sequence (Q8VIJ5 1-916): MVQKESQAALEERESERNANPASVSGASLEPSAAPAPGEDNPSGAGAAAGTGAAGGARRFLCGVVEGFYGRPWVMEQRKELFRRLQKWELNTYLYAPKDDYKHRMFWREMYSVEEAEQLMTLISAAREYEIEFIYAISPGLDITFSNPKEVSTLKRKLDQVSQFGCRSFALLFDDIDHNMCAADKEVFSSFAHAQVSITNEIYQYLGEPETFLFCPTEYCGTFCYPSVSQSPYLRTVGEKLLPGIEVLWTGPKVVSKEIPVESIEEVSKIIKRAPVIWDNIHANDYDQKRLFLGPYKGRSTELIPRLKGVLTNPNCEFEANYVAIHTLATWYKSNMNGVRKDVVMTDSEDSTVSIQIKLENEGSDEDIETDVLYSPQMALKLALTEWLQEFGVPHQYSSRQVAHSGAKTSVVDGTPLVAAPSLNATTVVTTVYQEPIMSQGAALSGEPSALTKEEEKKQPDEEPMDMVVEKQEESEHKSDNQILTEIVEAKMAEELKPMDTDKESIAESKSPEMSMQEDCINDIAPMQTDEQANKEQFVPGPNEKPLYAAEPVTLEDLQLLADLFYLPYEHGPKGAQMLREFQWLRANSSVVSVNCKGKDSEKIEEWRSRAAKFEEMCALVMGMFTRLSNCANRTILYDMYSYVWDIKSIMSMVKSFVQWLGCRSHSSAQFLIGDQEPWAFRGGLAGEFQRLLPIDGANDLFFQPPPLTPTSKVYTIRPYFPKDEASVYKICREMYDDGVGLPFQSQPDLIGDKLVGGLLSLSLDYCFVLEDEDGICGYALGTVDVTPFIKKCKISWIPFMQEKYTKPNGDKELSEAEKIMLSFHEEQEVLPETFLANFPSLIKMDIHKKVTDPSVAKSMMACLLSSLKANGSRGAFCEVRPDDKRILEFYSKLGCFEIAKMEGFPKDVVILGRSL
Assay: Rat OGA occupancy of thiamet G
Assay type: in vivo
Conditions: 2 h before tracer

## CCN=C1N[C@@H]2[C@@H](O)[C@H](O)[C@@H](CO)O[C@@H]2S1 [thiamet G]
Thiamet G 30 mg/kg p.o.
  LSN3316612 tracer uptake blocked: 80%
Thiamet G 100 mg/kg p.o.
  LSN3316612 tracer uptake blocked: 94%
